Results: the supplement of paper PMC10883282
± gives the standard deviation of the averaged measurements.

Legend:
Assay in all cases: relative viability vs DMSO control (72 h) (fraction); higher = more viable cells
[1] = system: HT1080
Method in brief: (§1)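 After seeding at densities set for 80–90% confluence in 384-well plates, sarcoma cell lines waited 24 h before 2.5 µl of serially diluted compound was added. Source plates held 10 mM down to 0.0002 mM. Plates were incubated 72 h at 37 °C with 5% CO2, with 0.1% DMSO vehicle and a 5 µM positive control, and relative viability was taken from ATPLite as percent growth averaged over up to triplicate wells, with 1 set as full and 0 as none.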

[2] = system: SW872
Method in brief: as §1

[3] = system: SK-LMS-1
Method in brief: as §1

[4] = system: KHOS-NP
Method in brief: as §1

[5] = system: HS729
Method in brief: as §1

[6] = system: SK-ES-1
Method in brief: as §1

[7] = system: A204
Method in brief: as §1

[8] = system: VA-ES-BJ
Method in brief: as §1

[9] = system: SW684
Method in brief: as §1

[10] = system: G401
Method in brief: as §1

[11] = system: SW982
Method in brief: as §1

[12] = system: RD-ES
Method in brief: as §1

Which results are given for `CNC(=O)c1cc(Oc2ccc(NC(=O)Nc3ccc(Cl)c(C(F)(F)F)c3)cc2)ccn1` [Sorafenib]?
relative viability ([1]; 0.00017 µM): 1.06 ± 0.059; relative viability ([1]; 0.00051 µM): 1.06 ± 0.071; relative viability ([1]; 0.00152 µM): 1.1 ± 0.026; relative viability ([1]; 0.00457 µM): 1.08 ± 0.017; relative viability ([1]; 0.01372 µM): 1.07 ± 0.047; relative viability ([1]; 0.04115 µM): 1.07 ± 0.052; relative viability ([1]; 0.1235 µM): 1.08 ± 0.047; relative viability ([1]; 0.3704 µM): 1.12 ± 0.073; relative viability ([1]; 1.111 µM): 1.102 ± 0.011; relative viability ([1]; 3.333 µM): 0.94 ± 0.028; relative viability ([1]; 10 µM): 0.0932 ± 0.0023; relative viability ([2]; 0.00017 µM): 1.09 ± 0.072; relative viability ([2]; 0.00051 µM): 1.09 ± 0.056; relative viability ([2]; 0.00152 µM): 1.05 ± 0.043; relative viability ([2]; 0.00457 µM): 1.06 ± 0.073; relative viability ([2]; 0.01372 µM): 1.09 ± 0.11; relative viability ([2]; 0.04115 µM): 1.09 ± 0.081; relative viability ([2]; 0.1235 µM): 1.07 ± 0.049; relative viability ([2]; 0.3704 µM): 1.09 ± 0.052; relative viability ([2]; 1.111 µM): 1.07 ± 0.059; relative viability ([2]; 3.333 µM): 1.02 ± 0.09; relative viability ([2]; 10 µM): 0.553 ± 0.019; relative viability ([3]; 0.00017 µM): 1.1 ± 0.046; relative viability ([3]; 0.00051 µM): 1.07 ± 0.025; relative viability ([3]; 0.00152 µM): 1.11 ± 0.06; relative viability ([3]; 0.00457 µM): 1.1 ± 0.034; relative viability ([3]; 0.01372 µM): 1.1 ± 0.026; relative viability ([3]; 0.04115 µM): 1.12 ± 0.064; relative viability ([3]; 0.1235 µM): 1.05 ± 0.055; relative viability ([3]; 0.3704 µM): 1.09 ± 0.043; relative viability ([3]; 1.111 µM): 1.07 ± 0.04; relative viability ([3]; 3.333 µM): 0.713 ± 0.029; relative viability ([3]; 10 µM): 0.0735 ± 0.0075; relative viability ([4]; 0.00017 µM): 1.09 ± 0.023; relative viability ([4]; 0.00051 µM): 1.09 ± 0.037; relative viability ([4]; 0.00152 µM): 1.1 ± 0.034; relative viability ([4]; 0.00457 µM): 1.09 ± 0.02; relative viability ([4]; 0.01372 µM): 1.08 ± 0.022; relative viability ([4]; 0.04115 µM): 1.1 ± 0.033; relative viability ([4]; 0.1235 µM): 1.103 ± 0.0053; relative viability ([4]; 0.3704 µM): 1.08 ± 0.032; relative viability ([4]; 1.111 µM): 0.993 ± 0.015; relative viability ([4]; 3.333 µM): 0.534 ± 0.0077; relative viability ([4]; 10 µM): 0.375 ± 0.036; relative viability ([5]; 0.00017 µM): 0.948 ± 0.029; relative viability ([5]; 0.00051 µM): 0.966 ± 0.071; relative viability ([5]; 0.00152 µM): 0.939 ± 0.037; relative viability ([5]; 0.00457 µM): 0.978 ± 0.044; relative viability ([5]; 0.01372 µM): 0.946 ± 0.02; relative viability ([5]; 0.04115 µM): 1.02 ± 0.016; relative viability ([5]; 0.1235 µM): 0.937 ± 0.037; relative viability ([5]; 0.3704 µM): 0.85 ± 0.041; relative viability ([5]; 1.111 µM): 0.858 ± 0.045; relative viability ([5]; 3.333 µM): 0.811 ± 0.02; relative viability ([5]; 10 µM): 0.624 ± 0.032; relative viability ([6]; 0.00017 µM): 0.978 ± 0.077; relative viability ([6]; 0.00051 µM): 1.01 ± 0.0071; relative viability ([6]; 0.00152 µM): 1.04 ± 0.035; relative viability ([6]; 0.00457 µM): 1.05 ± 0.027; relative viability ([6]; 0.01372 µM): 1.07 ± 0.016; relative viability ([6]; 0.04115 µM): 1.01 ± 0.027; relative viability ([6]; 0.1235 µM): 1.06 ± 0.034; relative viability ([6]; 0.3704 µM): 1.07 ± 0.031; relative viability ([6]; 1.111 µM): 0.96 ± 0.065; relative viability ([6]; 3.333 µM): 0.8855 ± 0.0053; relative viability ([6]; 10 µM): 0.252 ± 0.0099; relative viability ([7]; 0.00017 µM): 1.07 ± 0.069; relative viability ([7]; 0.00051 µM): 1.1 ± 0.03; relative viability ([7]; 0.00152 µM): 1.09 ± 0.046; relative viability ([7]; 0.00457 µM): 1.11 ± 0.065; relative viability ([7]; 0.01372 µM): 1.06 ± 0.037; relative viability ([7]; 0.04115 µM): 1.08 ± 0.036; relative viability ([7]; 0.1235 µM): 0.914 ± 0.14; relative viability ([7]; 0.3704 µM): 0.567 ± 0.024; relative viability ([7]; 1.111 µM): 0.51 ± 0.011; relative viability ([7]; 3.333 µM): 0.385 ± 0.024; relative viability ([7]; 10 µM): 0.157 ± 0.02; relative viability ([8]; 0.00017 µM): 1.04 ± 0.022; relative viability ([8]; 0.00051 µM): 1.07 ± 0.027; relative viability ([8]; 0.00152 µM): 1.07 ± 0.022; relative viability ([8]; 0.00457 µM): 1.06 ± 0.013; relative viability ([8]; 0.01372 µM): 1.07 ± 0.028; relative viability ([8]; 0.04115 µM): 1.09 ± 0.048; relative viability ([8]; 0.1235 µM): 1.11 ± 0.03; relative viability ([8]; 0.3704 µM): 1.143 ± 0.011; relative viability ([8]; 1.111 µM): 1.15 ± 0.017; relative viability ([8]; 3.333 µM): 1.14 ± 0.051; relative viability ([8]; 10 µM): 0.436 ± 0.0078; relative viability ([9]; 0.00017 µM): 1.2 ± 0.047; relative viability ([9]; 0.00051 µM): 1.2 ± 0.023; relative viability ([9]; 0.00152 µM): 1.18 ± 0.067; relative viability ([9]; 0.00457 µM): 1.19 ± 0.062; relative viability ([9]; 0.01372 µM): 1.16 ± 0.056; relative viability ([9]; 0.04115 µM): 1.2 ± 0.044; relative viability ([9]; 0.1235 µM): 1.23 ± 0.017; relative viability ([9]; 0.3704 µM): 1.27 ± 0.019; relative viability ([9]; 1.111 µM): 1.32 ± 0.051; relative viability ([9]; 3.333 µM): 0.938 ± 0.013; relative viability ([9]; 10 µM): 0.276 ± 0.013; relative viability ([10]; 0.00017 µM): 0.997 ± 0.026; relative viability ([10]; 0.00051 µM): 1 ± 0.02; relative viability ([10]; 0.00152 µM): 1.01 ± 0.034; relative viability ([10]; 0.00457 µM): 1.01 ± 0.024; relative viability ([10]; 0.01372 µM): 1.04 ± 0.036; relative viability ([10]; 0.04115 µM): 1.01 ± 0.019; relative viability ([10]; 0.1235 µM): 1.02 ± 0.016; relative viability ([10]; 0.3704 µM): 0.988 ± 0.013; relative viability ([10]; 1.111 µM): 0.893 ± 0.029; relative viability ([10]; 3.333 µM): 0.684 ± 0.034; relative viability ([10]; 10 µM): 0.147 ± 0.026; relative viability ([11]; 0.00017 µM): 1.07 ± 0.023; relative viability ([11]; 0.00051 µM): 1.06 ± 0.039; relative viability ([11]; 0.00152 µM): 1.05 ± 0.04; relative viability ([11]; 0.00457 µM): 1.07 ± 0.037; relative viability ([11]; 0.01372 µM): 1.06 ± 0.038; relative viability ([11]; 0.04115 µM): 1.07 ± 0.026; relative viability ([11]; 0.1235 µM): 1.07 ± 0.033; relative viability ([11]; 0.3704 µM): 1.07 ± 0.034; relative viability ([11]; 1.111 µM): 1.06 ± 0.047; relative viability ([11]; 3.333 µM): 0.992 ± 0.064; relative viability ([11]; 10 µM): 0.559 ± 0.027; relative viability ([12]; 0.00017 µM): 0.972 ± 0.042; relative viability ([12]; 0.00051 µM): 0.98 ± 0.022; relative viability ([12]; 0.00152 µM): 0.963 ± 0.048; relative viability ([12]; 0.00457 µM): 0.992 ± 0.025; relative viability ([12]; 0.01372 µM): 1 ± 0.022; relative viability ([12]; 0.04115 µM): 0.987 ± 0.05; relative viability ([12]; 0.1235 µM): 0.987 ± 0.036; relative viability ([12]; 0.3704 µM): 0.992 ± 0.031; relative viability ([12]; 1.111 µM): 0.994 ± 0.03; relative viability ([12]; 3.333 µM): 0.903 ± 0.04; relative viability ([12]; 10 µM): 0.274 ± 0.027
